Assay results taken from ChEMBL document CHEMBL1201862, “PubChem BioAssay data set” (2004).
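Growth conditions: 96-well plates. Treatment: test compound, 48 hours, 5 concentrations. Analysis: linear interpolation between bracketing concentrations; unreached endpoints set to highest concentration. At the GI50, growth is halved.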 Active and inactive are the calls of the source. Cut-off read from the data, not from the text of the source: active = GI50 up to about 1.1 µM and inactive = higher.

Legend:
Test in all cases: inhibition of tumour cell growth, NCI panel, 48 h
[1] = test system: 786-0
[2] = test system: A498
[3] = test system: A549
[4] = test system: ACHN
[5] = test system: BT-549
[6] = test system: CAKI-1
[7] = test system: CCRF-CEM
[8] = test system: COLO 205
[9] = test system: DU-145
[10] = test system: EKVX
[11] = test system: HCC 2998
[12] = test system: HCT-116
[13] = test system: HCT-15
[14] = test system: HL-60
[15] = test system: HOP-62
[16] = test system: HT-29
[17] = test system: Hs-578T
[18] = test system: IGROV-1
[19] = test system: K562
[20] = test system: KM12
[21] = test system: LOX IMVI
[22] = test system: M14
[23] = test system: MCF7
[24] = test system: MDA-MB-231
[25] = test system: MDA-MB-435
[26] = test system: MDA-N
[27] = test system: MOLT-4
[28] = test system: Malme-3M
[29] = test system: NCI-H226
[30] = test system: NCI-H23
[31] = test system: NCI-H460
[32] = test system: NCI-H522
[33] = test system: NCI/ADR-RES
[34] = test system: OVCAR-3
[35] = test system: OVCAR-4
[36] = test system: OVCAR-5
[37] = test system: OVCAR-8
[38] = test system: PC-3
[39] = test system: RPMI-8226
[40] = test system: RXF 393
[41] = test system: SF-268
[42] = test system: SF-295
[43] = test system: SF-539
[44] = test system: SK-MEL-28
[45] = test system: SK-MEL-2
[46] = test system: SK-MEL-5
[47] = test system: SK-OV-3
[48] = test system: SN12C
[49] = test system: SNB-75
[50] = test system: SW-620
[51] = test system: T47D
[52] = test system: TK-10
[53] = test system: U-251
[54] = test system: UACC-257
[55] = test system: UACC-62
[56] = test system: UO-31

Measured: GI50

Cc1ccc(C(=O)Nc2ccc(CP(=O)(O)O)cc2CP(=O)(O)O)cc1NC(=O)c1cccc(N)c1
> 100 µM: [13]
inactive: [1] > 100 µM | [2] > 100 µM | [3] > 100 µM | [4] > 100 µM | [5] > 100 µM | [6] > 100 µM | [7] > 100 µM | [8] > 100 µM | [9] > 100 µM | [10] > 100 µM | [11] > 100 µM | [12] > 100 µM | [14] > 100 µM | [15] > 100 µM | [16] > 100 µM | [17] > 100 µM | [18] > 100 µM | [19] > 100 µM | [20] > 100 µM | [21] > 100 µM | [22] > 100 µM | [23] > 100 µM | [24] > 100 µM | [25] > 100 µM | [26] > 100 µM | [27] > 100 µM | [28] > 100 µM | [29] > 100 µM | [30] > 100 µM | [31] > 100 µM | [32] > 100 µM | [33] > 100 µM | [34] > 100 µM | [35] > 100 µM | [36] > 100 µM | [37] > 100 µM | [38] > 100 µM | [39] > 100 µM | [40] > 100 µM | [41] > 100 µM | [42] > 100 µM | [43] > 100 µM | [44] > 100 µM | [45] > 100 µM | [46] > 100 µM | [47] > 100 µM | [48] > 100 µM | [49] > 100 µM | [50] > 100 µM | [51] > 100 µM | [52] > 100 µM | [53] > 100 µM | [54] > 100 µM | [55] > 100 µM | [56] > 100 µM
